Source: PubChem BioAssay (NCI)
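Method: 48-hour compound exposure of cells in 96-well plates, five concentrations, linear interpolation of endpoints. The concentration for full growth arrest is given as TGI.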

What was measured:
Experiment in all cases: growth of human tumour cells (NCI), 48 h
SF-295 CNS = system: SF-295 CNS
RPMI-8226 leukemia = system: RPMI-8226 leukemia
OVCAR-8 ovarian = system: OVCAR-8 ovarian
UACC-257 melanoma = system: UACC-257 melanoma
ACHN renal = system: ACHN renal
XF 498 CNS = system: XF 498 CNS
OVCAR-5 ovarian = system: OVCAR-5 ovarian
DLD-1 colon = system: DLD-1 colon
IGROV1 ovarian = system: IGROV1 ovarian
UACC-62 melanoma = system: UACC-62 melanoma
HT29 colon = system: HT29 colon
786-0 renal = system: 786-0 renal
MALME-3M melanoma = system: MALME-3M melanoma
UO-31 renal = system: UO-31 renal
HCC-2998 colon = system: HCC-2998 colon
SNB-78 CNS = system: SNB-78 CNS
HCT-15 colon = system: HCT-15 colon
SK-MEL-28 melanoma = system: SK-MEL-28 melanoma
SF-539 CNS = system: SF-539 CNS
A549 NSCLC = system: A549 NSCLC
HOP-92 NSCLC = system: HOP-92 NSCLC
SK-MEL-5 melanoma = system: SK-MEL-5 melanoma
CAKI-1 renal = system: CAKI-1 renal
KM12 colon = system: KM12 colon
LXFL 529 NSCLC = system: LXFL 529 NSCLC
SN12C renal = system: SN12C renal
DMS 114 small cell lung = system: DMS 114 small cell lung
SK-OV-3 ovarian = system: SK-OV-3 ovarian
CCRF-CEM leukemia = system: CCRF-CEM leukemia
NCI-H460 lung = system: NCI-H460 lung
NCI-H23 lung = system: NCI-H23 lung
U251 CNS = system: U251 CNS
A498 renal = system: A498 renal
OVCAR-4 ovarian = system: OVCAR-4 ovarian
HL-60(TB) leukemia = system: HL-60(TB) leukemia
HOP-62 NSCLC = system: HOP-62 NSCLC
M19-MEL melanoma = system: M19-MEL melanoma
EKVX NSCLC = system: EKVX NSCLC
SF-268 CNS = system: SF-268 CNS
NCI-H226 lung = system: NCI-H226 lung
OVCAR-3 ovarian = system: OVCAR-3 ovarian
SW-620 colon = system: SW-620 colon
MOLT-4 leukemia = system: MOLT-4 leukemia
SNB-75 CNS = system: SNB-75 CNS
NCI-H522 lung = system: NCI-H522 lung
DMS 273 small cell lung = system: DMS 273 small cell lung
TK-10 renal = system: TK-10 renal
HOP-18 NSCLC = system: HOP-18 NSCLC
K-562 leukemia = system: K-562 leukemia
SNB-19 CNS = system: SNB-19 CNS
COLO 205 colon = system: COLO 205 colon
SK-MEL-2 melanoma = system: SK-MEL-2 melanoma
LOX IMVI melanoma = system: LOX IMVI melanoma
KM20L2 colon = system: KM20L2 colon
M14 melanoma = system: M14 melanoma

Question: `CCOc1ccc2c(c1)[n+]([O-])c(-c1nc3ccccc3s1)c(N)[n+]2[O-]` was tested. Which TGI (SF-295 CNS) did it give?
Answer: The TGI was over 100 µM.

Question: What about the TGI (RPMI-8226 leukemia) of the same compound?
Answer: Its TGI is over 100 µM.

Question: What about the TGI (OVCAR-8 ovarian) of the same compound?
Answer: Its TGI is over 100 µM.

Question: And the TGI (UACC-257 melanoma)?
Answer: The TGI was over 100 µM.

Question: What about the TGI (ACHN renal) of the same compound?
Answer: Its TGI is over 100 µM.

Question: What about the TGI (XF 498 CNS) of the same compound?
Answer: The TGI was 86.6 µM.

Question: What about the TGI (OVCAR-5 ovarian) of the same compound?
Answer: The TGI was over 100 µM.

Question: What about the TGI (DLD-1 colon) of the same compound?
Answer: Its TGI is over 100 µM.

Question: And the TGI (IGROV1 ovarian)?
Answer: Its TGI is over 100 µM.

Question: And the TGI (UACC-62 melanoma)?
Answer: Its TGI is over 100 µM.

Question: And the TGI (HT29 colon)?
Answer: The TGI was over 100 µM.

Question: And the TGI (786-0 renal)?
Answer: The TGI was over 100 µM.

Question: What about the TGI (MALME-3M melanoma) of the same compound?
Answer: Its TGI is over 100 µM.

Question: What about the TGI (UO-31 renal) of the same compound?
Answer: Its TGI is 96.3 µM.

Question: What about the TGI (HCC-2998 colon) of the same compound?
Answer: Its TGI is over 100 µM.

Question: What about the TGI (SNB-78 CNS) of the same compound?
Answer: Its TGI is over 100 µM.

Question: And the TGI (HCT-15 colon)?
Answer: Its TGI is over 100 µM.

Question: And the TGI (SK-MEL-28 melanoma)?
Answer: Its TGI is over 100 µM.

Question: And the TGI (SF-539 CNS)?
Answer: Its TGI is over 100 µM.

Question: What about the TGI (A549 NSCLC) of the same compound?
Answer: The TGI was over 100 µM.

Question: What about the TGI (HOP-92 NSCLC) of the same compound?
Answer: Its TGI is 70.1 µM.

Question: What about the TGI (SK-MEL-5 melanoma) of the same compound?
Answer: The TGI was 93.8 µM.

Question: And the TGI (CAKI-1 renal)?
Answer: The TGI was over 100 µM.

Question: What about the TGI (KM12 colon) of the same compound?
Answer: Its TGI is over 100 µM.

Question: What about the TGI (LXFL 529 NSCLC) of the same compound?
Answer: The TGI was over 100 µM.

Question: And the TGI (SN12C renal)?
Answer: The TGI was over 100 µM.

Question: What about the TGI (DMS 114 small cell lung) of the same compound?
Answer: Its TGI is over 100 µM.

Question: What about the TGI (SK-OV-3 ovarian) of the same compound?
Answer: Its TGI is over 100 µM.

Question: What about the TGI (CCRF-CEM leukemia) of the same compound?
Answer: Its TGI is over 100 µM.

Question: What about the TGI (NCI-H460 lung) of the same compound?
Answer: Its TGI is over 100 µM.

Question: What about the TGI (NCI-H23 lung) of the same compound?
Answer: Its TGI is over 100 µM.

Question: What about the TGI (U251 CNS) of the same compound?
Answer: Its TGI is over 100 µM.

Question: What about the TGI (A498 renal) of the same compound?
Answer: Its TGI is over 100 µM.

Question: What about the TGI (OVCAR-4 ovarian) of the same compound?
Answer: Its TGI is over 100 µM.

Question: What about the TGI (HL-60(TB) leukemia) of the same compound?
Answer: The TGI was over 100 µM.

Question: And the TGI (HOP-62 NSCLC)?
Answer: Its TGI is over 100 µM.

Question: What about the TGI (M19-MEL melanoma) of the same compound?
Answer: Its TGI is over 100 µM.

Question: And the TGI (EKVX NSCLC)?
Answer: The TGI was over 100 µM.

Question: What about the TGI (SF-268 CNS) of the same compound?
Answer: The TGI was over 100 µM.

Question: What about the TGI (NCI-H226 lung) of the same compound?
Answer: The TGI was over 100 µM.

Question: What about the TGI (OVCAR-3 ovarian) of the same compound?
Answer: The TGI was over 100 µM.

Question: What about the TGI (SW-620 colon) of the same compound?
Answer: Its TGI is over 100 µM.

Question: What about the TGI (MOLT-4 leukemia) of the same compound?
Answer: Its TGI is over 100 µM.

Question: What about the TGI (SNB-75 CNS) of the same compound?
Answer: Its TGI is over 100 µM.

Question: And the TGI (NCI-H522 lung)?
Answer: The TGI was 63.3 µM.

Question: What about the TGI (DMS 273 small cell lung) of the same compound?
Answer: Its TGI is over 100 µM.

Question: And the TGI (TK-10 renal)?
Answer: Its TGI is over 100 µM.

Question: What about the TGI (HOP-18 NSCLC) of the same compound?
Answer: Its TGI is 92.1 µM.

Question: What about the TGI (K-562 leukemia) of the same compound?
Answer: Its TGI is over 100 µM.

Question: What about the TGI (SNB-19 CNS) of the same compound?
Answer: Its TGI is over 100 µM.

Question: And the TGI (COLO 205 colon)?
Answer: Its TGI is over 100 µM.

Question: And the TGI (SK-MEL-2 melanoma)?
Answer: Its TGI is over 100 µM.

Question: What about the TGI (LOX IMVI melanoma) of the same compound?
Answer: The TGI was over 100 µM.

Question: And the TGI (KM20L2 colon)?
Answer: Its TGI is over 100 µM.

Question: What about the TGI (M14 melanoma) of the same compound?
Answer: Its TGI is over 100 µM.
